Test results from ChEMBL document CHEMBL1201862, “PubChem BioAssay data set” (2004).
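1) Cells in 96-well plates. 2) Compound, 48 h, 5 concentrations. 3) Linear interpolation between surrounding doses. 4) Unreached endpoint = highest concentration. GI50 is the concentration that inhibits growth by half.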 The source made the active and inactive calls. Cut-off read from the data, not from the text of the source: active = GI50 up to about 1.1 µM and inactive = higher.

Experiments:
Assay in all cases: inhibition of tumour cell growth, NCI panel, 48 h
M14 = test system: M14
HCT-116 = test system: HCT-116
DMS-114 = test system: DMS-114
OVCAR-8 = test system: OVCAR-8
RPMI-8226 = test system: RPMI-8226
SK-MEL-5 = test system: SK-MEL-5
LXFL 529 = test system: LXFL 529
KM-20L2 = test system: KM-20L2
SK-MEL-2 = test system: SK-MEL-2
SF-539 = test system: SF-539
HOP-18 = test system: HOP-18
DMS-273 = test system: DMS-273
K562 = test system: K562
UACC-62 = test system: UACC-62
UACC-257 = test system: UACC-257
HOP-62 = test system: HOP-62
SN12C = test system: SN12C
A498 = test system: A498
ACHN = test system: ACHN
M19-MEL = test system: M19-MEL
SW-620 = test system: SW-620
NCI-H23 = test system: NCI-H23
786-0 = test system: 786-0
U-251 = test system: U-251
OVCAR-5 = test system: OVCAR-5
OVCAR-3 = test system: OVCAR-3
SNB-75 = test system: SNB-75
MOLT-4 = test system: MOLT-4
IGROV-1 = test system: IGROV-1
EKVX = test system: EKVX
SNB-19 = test system: SNB-19
HT-29 = test system: HT-29
TK-10 = test system: TK-10
KM12 = test system: KM12
SNB-78 = test system: SNB-78
NCI-H460 = test system: NCI-H460
Malme-3M = test system: Malme-3M
HOP-92 = test system: HOP-92
DLD-1 = test system: DLD-1
SF-295 = test system: SF-295
COLO 205 = test system: COLO 205
NCI-H226 = test system: NCI-H226
UO-31 = test system: UO-31
LOX IMVI = test system: LOX IMVI
RXF 631 = test system: RXF 631
A549 = test system: A549
CAKI-1 = test system: CAKI-1
SF-268 = test system: SF-268
NCI-H522 = test system: NCI-H522
OVCAR-4 = test system: OVCAR-4
HL-60 = test system: HL-60
HCT-15 = test system: HCT-15
SK-OV-3 = test system: SK-OV-3
SK-MEL-28 = test system: SK-MEL-28
HCC 2998 = test system: HCC 2998
RXF 393 = test system: RXF 393
CCRF-CEM = test system: CCRF-CEM

With `Cc1cccc(C)c1N1C(=O)C(=O)C(c2nc3ccccc3s2)/C(=N\N)C1=O` (centres undefined) the GI50 (M14) was > 100 µM (inactive), the GI50 (HCT-116) was > 100 µM (inactive) and the GI50 (DMS-114) was 60.8 µM (inactive). For the same compound, the GI50 (OVCAR-8) was > 100 µM (inactive), the GI50 (RPMI-8226) was 39.9 µM (inactive) and the GI50 (SK-MEL-5) was > 100 µM (inactive). For the same compound, the GI50 (LXFL 529) was 40.8 µM (inactive), the GI50 (KM-20L2) was > 100 µM (inactive) and the GI50 (SK-MEL-2) was > 100 µM (inactive). For the same compound, the GI50 (SF-539) was > 100 µM (inactive), the GI50 (HOP-18) was 49.7 µM (inactive) and the GI50 (DMS-273) was > 100 µM (inactive). The GI50 (K562) was 31.8 µM (inactive), the GI50 (UACC-62) was 77.4 µM (inactive) and the GI50 (UACC-257) was > 100 µM (inactive). The GI50 (HOP-62) was > 100 µM (inactive), the GI50 (SN12C) was 78.7 µM (inactive) and the GI50 (A498) was > 100 µM (inactive). The GI50 (ACHN) was 62.1 µM (inactive), the GI50 (M19-MEL) was > 100 µM (inactive) and the GI50 (SW-620) was > 100 µM (inactive). For the same compound, the GI50 (NCI-H23) was > 100 µM (inactive), the GI50 (786-0) was > 100 µM (inactive) and the GI50 (U-251) was > 100 µM (inactive). For the same compound, the GI50 (OVCAR-5) was > 100 µM (inactive), the GI50 (OVCAR-3) was > 100 µM (inactive) and the GI50 (SNB-75) was > 100 µM (inactive). The GI50 (MOLT-4) was 30.3 µM (inactive), the GI50 (IGROV-1) was > 100 µM (inactive) and the GI50 (EKVX) was 47 µM (inactive). For the same compound, the GI50 (SNB-19) was > 100 µM (inactive), the GI50 (HT-29) was > 100 µM (inactive) and the GI50 (TK-10) was > 100 µM (inactive). The GI50 (KM12) was 52 µM (inactive), the GI50 (SNB-78) was > 100 µM (inactive) and the GI50 (NCI-H460) was > 100 µM (inactive). The GI50 (Malme-3M) was > 100 µM (inactive), the GI50 (HOP-92) was > 100 µM (inactive) and the GI50 (DLD-1) was > 100 µM (inactive). For the same compound, the GI50 (SF-295) was > 100 µM (inactive), the GI50 (COLO 205) was > 100 µM (inactive) and the GI50 (NCI-H226) was > 100 µM (inactive). For the same compound, the GI50 (UO-31) was > 100 µM (inactive), the GI50 (LOX IMVI) was > 100 µM (inactive) and the GI50 (RXF 631) was > 100 µM (inactive). The GI50 (A549) was > 100 µM (inactive), the GI50 (CAKI-1) was > 100 µM (inactive) and the GI50 (SF-268) was > 100 µM (inactive). For the same compound, the GI50 (NCI-H522) was 39.4 µM (inactive), the GI50 (OVCAR-4) was > 100 µM (inactive) and the GI50 (HL-60) was 36.3 µM (inactive). For the same compound, the GI50 (HCT-15) was greater than 100 µM, the GI50 (SK-OV-3) was > 100 µM (inactive) and the GI50 (SK-MEL-28) was > 100 µM (inactive). The GI50 (HCC 2998) was > 100 µM (inactive).

For `C=CCSC[C@H](NC(=O)COc1ccccc1)C(=O)NC(C(=O)OCc1ccc([N+](=O)[O-])cc1)=C(C)C`, the GI50 (M14) was 47.9 µM (inactive), the GI50 (HCT-116) was > 100 µM (inactive) and the GI50 (DMS-114) was 45.3 µM (inactive). The GI50 (OVCAR-8) was 63 µM (inactive), the GI50 (RXF 393) was 49.7 µM (inactive) and the GI50 (RPMI-8226) was 39.2 µM (inactive). For the same compound, the GI50 (CCRF-CEM) was 45.5 µM (inactive), the GI50 (SK-MEL-5) was 27.6 µM (inactive) and the GI50 (LXFL 529) was 36.1 µM (inactive). The GI50 (KM-20L2) was > 100 µM (inactive), the GI50 (SK-MEL-2) was > 100 µM (inactive) and the GI50 (HOP-18) was > 100 µM (inactive). For the same compound, the GI50 (DMS-273) was 50.4 µM (inactive), the GI50 (K562) was 44.5 µM (inactive) and the GI50 (UACC-62) was 72.6 µM (inactive). The GI50 (UACC-257) was 52.4 µM (inactive), the GI50 (HOP-62) was > 100 µM (inactive) and the GI50 (SN12C) was > 100 µM (inactive). For the same compound, the GI50 (A498) was 12.2 µM (inactive), the GI50 (ACHN) was 54 µM (inactive) and the GI50 (M19-MEL) was 32.1 µM (inactive). For the same compound, the GI50 (786-0) was > 100 µM (inactive), the GI50 (U-251) was 76.6 µM (inactive) and the GI50 (OVCAR-3) was 45.7 µM (inactive). The GI50 (SNB-75) was 37.6 µM (inactive), the GI50 (MOLT-4) was 19.8 µM (inactive) and the GI50 (IGROV-1) was > 100 µM (inactive). For the same compound, the GI50 (EKVX) was 43.7 µM (inactive), the GI50 (HT-29) was 39.1 µM (inactive) and the GI50 (KM12) was 73.5 µM (inactive). For the same compound, the GI50 (SNB-78) was 63.2 µM (inactive), the GI50 (NCI-H460) was 49.5 µM (inactive) and the GI50 (Malme-3M) was > 100 µM (inactive). The GI50 (DLD-1) was > 100 µM (inactive), the GI50 (SF-295) was 50.8 µM (inactive) and the GI50 (COLO 205) was 20.6 µM (inactive). The GI50 (NCI-H226) was 28.6 µM (inactive), the GI50 (UO-31) was 33.6 µM (inactive) and the GI50 (LOX IMVI) was 64.9 µM (inactive). The GI50 (RXF 631) was 90.8 µM (inactive), the GI50 (A549) was 62.1 µM (inactive) and the GI50 (SF-268) was > 100 µM (inactive). The GI50 (NCI-H522) was 26.4 µM (inactive), the GI50 (OVCAR-4) was 62.2 µM (inactive) and the GI50 (HL-60) was 23.3 µM (inactive). The GI50 (HCT-15) was 65.5 µM, the GI50 (SK-OV-3) was > 100 µM (inactive) and the GI50 (SK-MEL-28) was > 100 µM (inactive). For the same compound, the GI50 (HCC 2998) was > 100 µM (inactive).
